Entries after “also recorded” stand apart in the source; their conditions may differ.
Assays:
[1] = biological target: T1, EGF receptor (Rattus norvegicus, UniProt G3V6K6); assay: EGF receptor autophosphorylation in endosomes in the presence and absence of ATP; assay type: biochemical; settings: ENs from EGF-treated rats incubated with 5 mM ATP
T1 construct: from tissue; host or cells: rat liver endosomes after EGF injection in vivo
Experimental: EGF (10 μg/100 g body weight) was injected via the jugular vein into anesthetized rats. The animals were sacrificed by decapitation 15 mins later and ENs containing EGF receptor were prepared as noted above. Resuspended ENs containing EGF receptor were incubated for 15 mins with 5 mM ATP after which auto-phosphorylation was initiated by adding ^32P-ATP. The reaction was stopped after 15 mins of incubation at 37° C. by adding Laemmli sample buffer after which aliquots (100 μg protein) were subjected to SDS-PAGE, alkali digestion, and radioautography as described previously (Faure, R. et al. (1992) J. Biol. Chem. 267, 11215-11221).
We then determined whether preincubation with ATP attenuated EGF receptor autophosphorylation. […] EN fractions, prepared 15 mins after injecting rats with EGF (10 μg/100 g body weight), were incubated in the presence or absence of ATP (5 mM) prior to conducting autophosphorylation with ^32P-ATP, SDS-PAGE, and autoradiography.

[2] = biological target: T2, insulin receptor kinase (IRK) (Rattus norvegicus, UniProt P15127); assay: Insulin receptor kinase (IRK) exogenous tyrosine kinase activity, Poly (Glu:Tyr) (4:1) substrate, WGA-purified IRK from preincubated cell fractions; assay type: biochemical; settings: for IRK activity of ENs containing IR (FIG. 1A): versus absence of ATP
T2 construct: from tissue; host or cells: rat liver; endosome (EN) and plasma membrane (PM) fractions

[3] = biological target: T2, insulin receptor kinase (IRK); assay: DTT-dependent reduction of endosomal IRK heterotetramer (non-reducing SDS-PAGE); assay type: biochemical; settings: ENs incubated with 5 mM ATP, 10 mM DTT, 15 min 37° C.
Experimental: Endosomal pellets containing IR were resuspended (500 μg protein/ml) in a final concentration of 50 mM Tris (pH 6.9), 10% glycerol and 20 mM N-ethylmaleimide. Samples were incubated at room temperature for 5 mins and then solubilized without heating in 2.3% SDS-0.05% bromophenol blue before subjecting to SDS-PAGE in the absence of reductants (Faure et al. ([…]) J. Biol. Chem. 267, 11215-11221).
The above observation raised the possibility that intraluminal events were responsible for deactivation of the endosomal IRK. This led us to investigate whether there might be a conformational change in the IRK consequent to ATP-dependent acidification. To probe this possibility we incubated ENs containing IR with ATP in the presence or absence of 10 mM DTT to assess the ease with which Type I disulfide bonds might be reduced in the heterotetrameric molecule ([…]). […] Hepatic ENs containing IR were prepared 2 mins after insulin injection (1.5 μg/100 g body weight) and were incubated for 15 min at 37° C. in the absence or presence of 10 mM DTT and 5 mM ATP. The ENs were centrifuged and the pellets resuspended and treated as described above. Samples were applied without heating to SDS-PAGE (gradient resolving gel, 3-10% acrylamide) in the absence of reductant. […]

[4] = biological target: T3, insulin receptor kinase (IRK) β-subunit (Rattus norvegicus, UniProt P15127); assay: IRK β-subunit phosphotyrosine content (αPY immunoblot of WGA eluates); assay type: biochemical
T3 construct: from tissue; host or cells: rat liver; endosome (EN) and plasma membrane (PM) fractions
Experimental: The phosphotyrosine content of endosomal IRs (ENs containing IR) was determined by subjecting lectin column (WGA-Sepharose™)-purified preparations to SDS-PAGE and immunoblotting with α960 and αPY (Faure et al. (1992) J. Biol. Chem. 267, 11215-11221). […] FIG. 1B illustrates the effect of ATP on β subunit phosphotyrosine content. WGA eluates (5 μg protein) were subjected to SDS-PAGE in 7.5% gels followed by transfer of proteins to Immobilon-P membranes. Membranes were probed with αPY or α960 antibodies followed by incubation with ^125I-GAR as second antibody and exposed for autoradiography.

[5] = tested on: 125I-hGH binding; assay: 125I-hGH binding after preincubating endosomes with ATP; design: species or system rat; settings: preincubation 37° C. 15 min, percent of control
Experimental: (1992) J. Biol. Chem. 267, 11215-11221). Livers were rapidly excised, placed in ice-cold homogenizing buffer (50 mM HEPES (pH 7.4), 0.25 M sucrose, 1 mM PMSF, 1 MM MgCl2, 1 mM benzamidine) and minced before homogenization. Combined ENs and PM fractions were prepared (Faure et al. (1992) J. Biol. Chem. 267, 11215-11221) except that the buffer used throughout was that in which the livers were minced (see above). These subcellular fractions have been characterized in detail both morphologically and biochemically. […] I. et al. (1982) J. Biol. Chem. 257, 5789-5799). Protein content in the fractions was determined by a modification of Bradford's method using serum albumin as a standard (Khan, M. N. et al. […] In the present study we wished to assess whether other processes might be involved in reducing the association of intraendosomal insulin with its receptor. We examined the effect of incubating intact ENs containing IR with increasing concentrations of ATP on subsequently measured insulin and hGH binding in both solubilized and WGA-purified receptors. […] [table]

[6] = preincubation 1 mM ATP 15 min, second incubation 5 mM ATP
[7] = sequential incubations in 1 mM ATP

T2 sequence (P15127 27-759 limits assumed): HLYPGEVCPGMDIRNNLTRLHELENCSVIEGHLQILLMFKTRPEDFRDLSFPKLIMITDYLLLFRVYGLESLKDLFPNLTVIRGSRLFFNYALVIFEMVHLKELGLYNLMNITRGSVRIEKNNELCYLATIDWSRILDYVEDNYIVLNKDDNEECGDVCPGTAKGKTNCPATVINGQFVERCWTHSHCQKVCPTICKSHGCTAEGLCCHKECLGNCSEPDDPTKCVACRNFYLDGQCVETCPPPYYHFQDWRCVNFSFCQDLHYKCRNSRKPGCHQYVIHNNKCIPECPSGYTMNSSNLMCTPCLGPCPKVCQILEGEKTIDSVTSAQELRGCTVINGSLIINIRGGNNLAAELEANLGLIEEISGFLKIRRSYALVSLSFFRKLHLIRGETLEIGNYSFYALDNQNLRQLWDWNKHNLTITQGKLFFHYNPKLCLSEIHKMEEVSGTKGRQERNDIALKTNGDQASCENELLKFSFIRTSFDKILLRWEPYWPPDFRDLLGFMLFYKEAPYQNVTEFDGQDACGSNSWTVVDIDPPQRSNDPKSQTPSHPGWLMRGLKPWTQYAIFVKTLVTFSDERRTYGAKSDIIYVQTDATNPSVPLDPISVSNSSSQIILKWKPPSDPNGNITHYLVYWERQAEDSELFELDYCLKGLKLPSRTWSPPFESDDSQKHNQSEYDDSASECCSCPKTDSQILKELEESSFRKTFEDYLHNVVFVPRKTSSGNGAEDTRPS
T2 sequence (P15127 764-1383 limits assumed): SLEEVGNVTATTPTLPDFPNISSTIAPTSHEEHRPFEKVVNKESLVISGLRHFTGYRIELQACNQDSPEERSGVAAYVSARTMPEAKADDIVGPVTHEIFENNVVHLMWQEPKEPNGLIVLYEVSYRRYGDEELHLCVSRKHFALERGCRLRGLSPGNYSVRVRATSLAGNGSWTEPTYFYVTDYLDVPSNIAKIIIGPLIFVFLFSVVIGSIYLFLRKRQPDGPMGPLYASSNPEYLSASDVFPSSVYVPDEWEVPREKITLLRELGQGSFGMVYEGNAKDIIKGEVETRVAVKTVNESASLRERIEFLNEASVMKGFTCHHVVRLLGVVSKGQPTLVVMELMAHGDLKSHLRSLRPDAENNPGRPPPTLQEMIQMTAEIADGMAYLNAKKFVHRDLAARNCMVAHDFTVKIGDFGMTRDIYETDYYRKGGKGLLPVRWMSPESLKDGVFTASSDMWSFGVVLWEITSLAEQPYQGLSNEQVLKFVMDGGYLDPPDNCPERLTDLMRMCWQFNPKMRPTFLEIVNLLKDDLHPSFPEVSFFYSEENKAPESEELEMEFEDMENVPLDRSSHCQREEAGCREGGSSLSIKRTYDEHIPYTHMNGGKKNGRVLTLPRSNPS
T3 sequence (P15127 27-759 limits assumed): as the sequence (P15127 27-759 limits assumed) above
T3 sequence (P15127 764-1383 limits assumed): as the sequence (P15127 764-1383 limits assumed) above
T1 sequence (G3V6K6 25-1209): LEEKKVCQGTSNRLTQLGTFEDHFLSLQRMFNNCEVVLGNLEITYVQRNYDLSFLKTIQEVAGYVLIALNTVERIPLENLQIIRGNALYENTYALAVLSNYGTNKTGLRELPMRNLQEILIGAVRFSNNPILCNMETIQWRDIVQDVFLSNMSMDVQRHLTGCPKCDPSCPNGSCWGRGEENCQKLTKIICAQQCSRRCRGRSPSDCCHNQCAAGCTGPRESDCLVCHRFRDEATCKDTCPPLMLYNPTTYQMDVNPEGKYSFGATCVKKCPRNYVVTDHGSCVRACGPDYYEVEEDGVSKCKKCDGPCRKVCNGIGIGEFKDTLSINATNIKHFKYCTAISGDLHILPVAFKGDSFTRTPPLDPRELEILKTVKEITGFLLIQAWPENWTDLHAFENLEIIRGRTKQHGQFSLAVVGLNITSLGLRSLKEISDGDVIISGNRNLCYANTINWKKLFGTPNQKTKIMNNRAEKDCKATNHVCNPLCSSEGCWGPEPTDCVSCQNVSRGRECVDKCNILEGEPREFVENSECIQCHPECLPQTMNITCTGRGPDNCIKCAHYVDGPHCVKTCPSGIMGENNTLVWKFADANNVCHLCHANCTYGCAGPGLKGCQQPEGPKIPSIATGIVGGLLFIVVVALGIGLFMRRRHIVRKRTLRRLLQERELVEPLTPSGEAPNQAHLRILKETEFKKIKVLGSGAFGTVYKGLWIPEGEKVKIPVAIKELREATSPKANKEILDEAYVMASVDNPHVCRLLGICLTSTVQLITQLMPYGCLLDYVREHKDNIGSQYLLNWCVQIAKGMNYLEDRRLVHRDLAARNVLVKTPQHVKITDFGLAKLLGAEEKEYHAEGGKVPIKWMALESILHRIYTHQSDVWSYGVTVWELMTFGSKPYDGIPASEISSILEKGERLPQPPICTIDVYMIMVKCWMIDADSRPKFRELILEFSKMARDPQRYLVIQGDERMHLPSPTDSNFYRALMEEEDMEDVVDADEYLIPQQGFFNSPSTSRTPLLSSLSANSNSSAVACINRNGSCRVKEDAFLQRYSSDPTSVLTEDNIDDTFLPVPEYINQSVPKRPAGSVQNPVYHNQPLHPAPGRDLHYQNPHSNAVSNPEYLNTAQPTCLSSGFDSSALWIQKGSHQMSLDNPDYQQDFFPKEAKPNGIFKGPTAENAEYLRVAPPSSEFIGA

Nc1ncnc2c1ncn2[C@@H]1O[C@H](COP(=O)(O)OP(=O)(O)OP(=O)(O)O)[C@@H](O)[C@H]1O [ATP, adenosine 5′triphosphate]
32P-labeling (autophosphorylation) of the EGF receptor (FIG. 3B) [1]: no significant attenuation | IRK activity of ENs containing IR (FIG. 1A) ([2]; 5 mM ATP, 15 min 37° C.): marked decrease | IRK activity of ENs containing IR ([2]; 10 mM ATP, 15 min 37° C.): virtually abolished; also recorded: suppressed IRK activity completely | IRK activity of ENs containing IR (FIG. 1A) ([2]; 0.1 and 1.0 mM ATP, 15 min 37° C.): increase | Activity of WGA-purified IRK from plasma membrane (PM) (FIG. 3A) ([2]; PM containing IR preincubated with ATP (1 and 10 mM), 15 min 37° C.): augmentation of activity | IRK activity after sequential incubations (FIG. 7B) [2, 6]: marked reduction | IRK activity after sequential incubations [2, 7]: no deleterious effect | Ability of DTT to reduce tetrameric IRK molecules (FIG. 8) [3]: significantly decreased | IRK phosphotyrosine content (FIG. 1B) ([4]; 1 mM ATP, 15 min 37° C.): markedly increased | IRK phosphotyrosine content (FIG. 1B) ([4]; 5 mM ATP, compared to 1 mM ATP): significantly reduced | IRK phosphotyrosine content (FIG. 1B) ([4]; 10 mM ATP, compared to 1 mM ATP): virtually abolished | IRK phosphotyrosine content after sequential incubations (FIG. 7A) [4, 6]: substantial retention | IRK phosphotyrosine content after sequential incubations [4, 7]: no deleterious effect | 125I-hGH specific binding, WGA-purified endosomes ([5]; ATP 0.1 mM): 88.7 ± 3.4% | 125I-hGH specific binding, solubilized endosomes ([5]; ATP 0.1 mM): 105.0 ± 5.1% | 125I-hGH specific binding, WGA-purified endosomes ([5]; ATP 1 mM): 93.3 ± 5.1% | 125I-hGH specific binding, solubilized endosomes ([5]; ATP 1 mM): 84.4 ± 6.6% | 125I-hGH specific binding, WGA-purified endosomes ([5]; ATP 10 mM): 75.2 ± 3.5% | 125I-hGH specific binding, solubilized endosomes ([5]; ATP 10 mM): 98.3 ± 3.5%

— US20040014637A1, “Mechanism for the inactivation of insulin receptor and uses in the treatment of type II diabetes” (McGill University, priority 1998, published 2004)
